Assay results as given in US20250031699A1, “Method for Controlling Parasitic Plants” (AJINOMOTO CO., INC., priority 2022, published 2025).

Tested on: Orobanche ramosa L.
Assay: Germination inducer activity in Orobanche ramosa L. (germination rate of seeds)
Format: in vivo
Method: In this Example, the germination inducer activity of Compound 1 on Orobanche ramosa L. was analyzed by measuring the germination rate. Orobanche ramosa L. is a parasitic plant of tomato, which is now classified as Phelipanche ramosa (L.) Pomel. The Orobanche ramosa L. used herein is a species that parasitizes tomatoes native to Portugal. Dried seeds of Orobanche ramosa L. were conditioned for one week in water from 20° C. to 26° C. in a dark and humid place. The compounds to be tested were each added in an amount of 2 mL to a Petri dish so as to give a final concentration of 1 μM or 100 nM (Compound 1), or 0.34 μM (GR24). After incubation from 20° C. to 26° C. in a dark and humid place for 1 week after the addition of the treatment solution, the germination rate was evaluated by counting the number of germinated seeds under a stereomicroscope.
In the table, “Germination” indicates the germination inducer activity of Compound 1. When the relative value of the germination rate was 4% or more, Compound 1 was marked with (+).

COC(=O)[C@H](CCCCNC(=O)OC1C=C(C)C(=O)O1)NC(=O)OC(C)(C)C (some centres unmarked) [Compound 1]
germination inducer activity for Orobanche ramosa L. (1 μM or 100 nM): exhibited germination inducer activity | Germination (Compound 1 at 1 μM or 100 nM, 20° C. to 26° C., dark, 1 week): + (When the relative value of the germination rate was 4% or more, Compound 1 was marked with (+))
